Laboratory results reported in patent US12622910B2, “Inhibitors of Bruton's tyrosine kinase and methods of their use” (Janssen Pharmaceutica NV, priority 2021, dated 2026).
Read-outs that look alike come from different tables or passages of the source.

Assays:
[1] = Population PK model and simulations; design: species or system human
Source text: PK/PD modeling and simulation—In the PK/PD model, a two-compartment population PK (popPK) model with a first-order absorption and elimination was used to fit the PK data. The model was parameterized in terms of apparent clearance (CL/F), apparent volume of distribution of the central compartment (V2/F), apparent inter-compartmental clearance (Q/F), apparent volume of distribution of the peripheral compartment (V3/F), and first-order absorption rate constant (Ka). Inter-individual variability was included on CL/F, V2/F, Q/F, and Ka. Following the development of the popPK model, the PK/PD model was subsequently developed based on individual estimates from the popPK model.
Once MAD data were available, the semi-mechanistic PK/PD model was updated with the acquired data from SAD and MAD cohorts. All covariate effects in the popPK analysis were evaluated on clearance from the central compartment (CL/F) only, except for body weight, food effect, and drug formulation. Body weight was included in the structural model (as a covariate on the CL/F, V2/F, Q/F). […] Food effect and drug formulation were evaluated on Ka. The covariates model selection was conducted using a full-model approach with backward elimination (nominal p<0.001, i.e., a change in the objective function value of 10.83 with 1 degree of freedom). A covariate model was initially developed using all statistically significant covariates of interest, and was then reduced by removing covariates with effect sizes less than 10% of the typical values of the respective PK parameters. This reduced model was regarded as the final mode which was subsequently used for PD model. Model selection was determined by graphical assessment, statistically significant difference in the objective function value between competing models. The performance of the final model was evaluated using a prediction-corrected visual predictive check (pcVPC; n=1000 replicates).
The semi-mechanistic PK/PD model was performed using NONMEM (version 7.3.0, ICON Development Solutions LLC, Ellicott City, MD, United States). The use of NONMEM, including model qualification procedures, were facilitated within the environment of Perl-speaks-NONMEM (version 4.6.0, a compatible front-end program for NONMEM. Data management, exploratory analyses, diagnostic graphics, and post processing of the data and NONMEM outputs were performed using R (version 3.4.1, The R Project for Statistical Computing, statistical software). All analyses were performed in a validated environment, High Performance Pharmacometrics Platform System (Rudraya Sonic version 4 or higher), based on Good Automated Manufacturing Practice and in accordance with 21 CFR Part 11 and Good Clinical Practice regulations.

[2] = biological target: T1, BMX (Homo sapiens, UniProt P51813); experiment: Eurofins KinaseProfiler/IC50Profiler radiometric kinase activity assay; format: biochemical
T1 construct: purchased Eurofins Scientific
T1 sequence (P51813 whole entry): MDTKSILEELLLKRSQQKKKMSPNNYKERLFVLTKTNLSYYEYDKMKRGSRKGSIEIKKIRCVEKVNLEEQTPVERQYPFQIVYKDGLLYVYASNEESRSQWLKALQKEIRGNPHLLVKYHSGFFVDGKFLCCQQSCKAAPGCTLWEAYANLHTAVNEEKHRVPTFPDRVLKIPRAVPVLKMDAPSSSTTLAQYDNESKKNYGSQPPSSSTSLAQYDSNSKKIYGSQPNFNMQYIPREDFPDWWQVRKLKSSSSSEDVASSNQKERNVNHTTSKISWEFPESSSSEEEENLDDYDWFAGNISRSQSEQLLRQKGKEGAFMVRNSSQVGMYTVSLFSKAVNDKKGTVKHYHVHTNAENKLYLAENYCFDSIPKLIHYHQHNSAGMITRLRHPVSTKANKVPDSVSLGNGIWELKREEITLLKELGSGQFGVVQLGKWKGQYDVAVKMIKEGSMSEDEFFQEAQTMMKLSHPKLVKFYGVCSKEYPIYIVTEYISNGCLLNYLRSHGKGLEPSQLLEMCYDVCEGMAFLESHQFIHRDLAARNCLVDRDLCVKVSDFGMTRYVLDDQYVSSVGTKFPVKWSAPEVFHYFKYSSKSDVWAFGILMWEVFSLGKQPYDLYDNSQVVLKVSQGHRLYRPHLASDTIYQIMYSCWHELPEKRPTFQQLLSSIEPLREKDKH
Method: (§1) RESULTS AND DISCUSSION—Selectivity—The compound of Formula (III) was evaluated in three selectivity panels to assess the potential for off-target pharmacology (Table 8). […] The kinase off-target profile of The compound of Formula (III) was assessed in a full human wild-type panel using radiometric kinase activity assays (KinaseProfiler™ and IC50Profiler™; Eurofins Scientific) (Table 9; FIG. 23). The compound of Formula (III) inhibited 4/278 kinases >50% at 1 micromolar, identifying BTK and the three other kinases having analogous Cys residues with the potential for covalent inhibition (BMX, TEC, BLK). […]. The cellular kinase selectivity of The compound of Formula (III) was established in native Ramos B cell kinome assays (KiNativ™; ActivX) confirmed BTK as the primary target with inhibition of BLK and TEC inhibition detected (Table 10).

[3] = biological target: BTK (Homo sapiens, UniProt Q06187); experiment: as above; format: biochemical
BTK, sequence (Q06187 whole entry): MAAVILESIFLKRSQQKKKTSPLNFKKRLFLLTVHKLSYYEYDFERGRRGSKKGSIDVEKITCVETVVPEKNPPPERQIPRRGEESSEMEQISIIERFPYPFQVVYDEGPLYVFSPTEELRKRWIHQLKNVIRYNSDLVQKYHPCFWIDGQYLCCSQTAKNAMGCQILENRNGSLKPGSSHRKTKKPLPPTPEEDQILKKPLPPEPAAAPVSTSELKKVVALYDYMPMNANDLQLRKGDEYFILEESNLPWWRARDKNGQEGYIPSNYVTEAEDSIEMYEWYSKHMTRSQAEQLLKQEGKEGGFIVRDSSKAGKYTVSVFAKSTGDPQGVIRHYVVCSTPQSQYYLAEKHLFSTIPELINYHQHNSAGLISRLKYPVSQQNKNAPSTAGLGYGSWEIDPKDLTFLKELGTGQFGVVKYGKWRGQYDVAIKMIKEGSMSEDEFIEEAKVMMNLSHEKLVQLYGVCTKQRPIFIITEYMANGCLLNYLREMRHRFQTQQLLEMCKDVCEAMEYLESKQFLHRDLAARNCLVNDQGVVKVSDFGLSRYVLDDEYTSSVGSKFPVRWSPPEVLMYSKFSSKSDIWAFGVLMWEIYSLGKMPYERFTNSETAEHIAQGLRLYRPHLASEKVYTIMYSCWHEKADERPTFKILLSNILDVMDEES
Method: as §1

[4] = biological target: T2, TEC (Homo sapiens, UniProt P42680); experiment: as above; format: biochemical
T2 construct: purchased Eurofins Scientific
T2 sequence (P42680 1-631): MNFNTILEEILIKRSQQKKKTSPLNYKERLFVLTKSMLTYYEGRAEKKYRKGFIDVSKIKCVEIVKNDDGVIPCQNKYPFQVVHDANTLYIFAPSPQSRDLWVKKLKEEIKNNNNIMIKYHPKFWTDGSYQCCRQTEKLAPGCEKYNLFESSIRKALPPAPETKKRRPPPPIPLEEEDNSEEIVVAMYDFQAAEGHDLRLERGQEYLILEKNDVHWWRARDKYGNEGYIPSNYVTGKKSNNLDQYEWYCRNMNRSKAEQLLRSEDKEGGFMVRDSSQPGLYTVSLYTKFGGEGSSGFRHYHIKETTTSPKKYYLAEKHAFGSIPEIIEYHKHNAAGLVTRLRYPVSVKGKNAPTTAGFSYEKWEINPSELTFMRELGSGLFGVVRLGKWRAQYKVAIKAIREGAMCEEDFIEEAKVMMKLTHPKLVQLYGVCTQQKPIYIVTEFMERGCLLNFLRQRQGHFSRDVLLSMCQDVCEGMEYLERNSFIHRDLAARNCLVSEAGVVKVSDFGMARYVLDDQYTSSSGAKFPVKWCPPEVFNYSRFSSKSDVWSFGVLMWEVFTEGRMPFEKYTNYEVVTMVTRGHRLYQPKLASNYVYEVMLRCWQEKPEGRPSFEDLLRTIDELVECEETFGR
Method: as §1

[5] = Plasma protein binding, equilibrium dialysis; format: in vitro ADME, Sprague Dawley rat
Method: (§2) Additional Data on Preclinical PK Profile—Protein binding of the compound of Formula (III) was studied using an equilibrium dialysis method in plasma from human, cynomolgus monkey, beagle dog, Sprague Dawley rat, CD-1 mouse, and guinea pig at 0.25, 2.5, and 25 μM. […] In human and monkey, the plasma protein binding was concentration dependent. […] Free fraction of the compound of Formula (III) in liver microsomes from various species ranged from 75.1% to 87.9% at 0.25 mg/mL and from 58.9% to 86.5% at 1.0 mg/mL (Table 17). […] In hepatocytes, the compound of Formula (III) turnover followed a similar trend, with T1/2 ranging from 75.3 minutes in monkey to 278.1 minutes in human.

[6] = Plasma protein binding, equilibrium dialysis; format: in vitro ADME, guinea pig
Method: as §2

[7] = Metabolic stability in liver microsomes; format: in vitro ADME, human
Method: as §2

[8] = Metabolic stability in liver microsomes; format: in vitro ADME, dog
Method: as §2

[9] = model (B), all SAD and MAD data
[10] = 10-point concentration response, read-out: IC50 (IC50 Profiler)

## C=CC(=O)N[C@H]1CCC[C@H]1NC(=O)c1sc2nccc3c2c1NC(=O)N3c1cnc(CC(C)C)cc1C (atropisomer, axis not shown) [compound of Formula (III), N-((1R,2S)-2-Acrylamidocyclopentyl)-5-(S)-(6-isobutyl-4-methylpyridin-3-yl)-4-oxo-4,5-dihydro-3H-1-thia-3,5,8-triazaacenaphthylene-2-carboxamide]
[1]; model (A), first 5 SAD cohorts
  CL/F, popPK estimate: 49.4 L/h
  Ka, popPK estimate: 1.94 h⁻¹
  Q/F, popPK estimate: 1.57 L/h
  V1/F, popPK estimate: 108.9 L
[1]; [9]
  CL/F, popPK estimate: 62.4 L/h
  FORM = Oral Capsule on Ka (covariate effect): 0.325
  Ka, popPK estimate: 1.97 h⁻¹
  NURT = Fed, standard meal on Ka (covariate effect): 0.339
  Q/F, popPK estimate: 2.85 L/h
  V1/F, popPK estimate: 129.6 L
[2]; 1 μM
  inhibition at 1 µM: 92%
[2]; [10]
  IC50: 0.172 µM
[3]; 1 μM
  inhibition at 1 µM: 98%
[3]; [10]
  IC50: 0.558 µM
[4]; 1 μM
  inhibition at 1 µM: 88%
[4]; [10]
  IC50: 0.303 µM
[5]; 0.25 μM
  % Free in plasma: 3.73%
[5]; Sprague Dawley, rat, plasma, 2.5 μM, read-out: % Free in plasma
  fraction unbound at 2.5 μM: 0.0365
[5]; Sprague Dawley, rat, plasma, 25 μM, read-out: % Free in plasma
  fraction unbound at 25 μM: 0.0405
[6]; 2.5 μM
  % Free in plasma: 3.23%
[6]; 25 μM
  % Free in plasma: 3.72%
[6]; guinea pig, plasma, 0.25 μM, read-out: % Free in plasma
  fraction unbound at 0.25 μM: 0.0326
[7]; Human
  Extraction Ratio, liver microsomes: 0.63
[7]; human, liver microsomes
  microsomal CLint: 31.1 µL/min/mg
[7]; human, liver microsomes, read-out: T1/2, liver microsomes
  half-life: 22.3 min
[8]; Dog
  Extraction Ratio, liver microsomes: 0.65
[8]; dog, liver microsomes
  microsomal CLint: 40.6 µL/min/mg
[8]; dog, liver microsomes, read-out: T1/2, liver microsomes
  half-life: 17.1 min
